This is an account of results in paper PMC3742645, “The Effect of Polyhydroxylated Alkaloids on Maltase-Glucoamylase” (PLoS ONE, 2013).

The experiment has as its target T1, ntMGAM (purchased as maltase-glucoamylase from rice, EC 3.2.1.20, Sigma G9259).
T1 construct: gene Os06g0675700; commercial native rice alpha-glucosidase; no human protein source or expression described
Kind of experiment: NMR transverse relaxation (CPMG) titration. Type of experiment: binding. Particulars: pH 6.8, 310 K, 10 mM sodium phosphate, 10% D2O, protein 18 μM; signal H-9; unit printed as M^-1 under a Kd heading. The source says:
NMR transverse relaxation (CPMG) titration on ntMGAM (purchased as maltase-glucoamylase from rice, EC 3.2.1.20, Sigma G9259)

Regarding `C[C@H]1O[C@H](O[C@H]2[C@H](O)[C@@H](O)[C@@H](O[C@H]3[C@H](O)[C@@H](O)C(O)O[C@@H]3CO)O[C@@H]2CO)[C@H](O)[C@@H](O)[C@@H]1N[C@H]1C=C(CO)[C@@H](O)[C@H](O)[C@H]1O` (stereo partly shown) [acarbose], the “K d(M^-1)” value is reported as “(5.4±0.1)×10^−5 M^−1”.
